Legend:
[1] = tested on: SARS-CoV-2 stock strain NL/2020; experiment: Protective effect against virus-induced cytopathic effect (crystal violet staining of Vero-E6 monolayer); assay type: cell-based; conditions: Severe acute respiratory syndrome coronavirus 2, Vero C1008, 72 h, Vero-E6, SARS-CoV-2 MOI 0.001, 72 h; for minimal effective concentration: 50 to 0.78 μM tested, read-out: PC MIN (lowest protective concentration); for EC50: lowest fully protecting concentration averaged with next lower dilution, read-out: ESTIMATED EC50
[2] = tested on: SARS-CoV-2 stock strain NL/2020; experiment: Intracellular viral antigen (N protein) accumulation by immunofluorescence, Vero-E6; assay type: cell-based; conditions: Severe acute respiratory syndrome coronavirus 2, Vero C1008; Vero-E6, MOI 0.005, viral antigen staining, 24 h
[3] = tested on: SARS-CoV-2 stock strain NL/2020; experiment: Intracellular viral antigen (N protein) accumulation by immunofluorescence, A549-ACE2; assay type: cell-based; conditions: Severe acute respiratory syndrome coronavirus 2; A549-ACE2, MOI 0.005, viral antigen staining, 48 h
[4] = tested on: SARS-CoV-2 stock strain NL/2020; experiment: Intracellular viral antigen (N protein) accumulation by immunofluorescence, Calu3; assay type: cell-based; conditions: Severe acute respiratory syndrome coronavirus 2; Calu-3, MOI 0.005, viral antigen staining, 48 h
hCoV-229E-GFP virus = assay type: cell-based, Human coronavirus 229E
WNV-GFP virus = assay type: cell-based, West Nile Virus; conditions: Huh-7, MOI 0.01, 48 h, FIG. 2
VSV-GFP virus = assay type: cell-based, Vesicular Stomatitis Virus
in vitro [5] = conditions: African green monkey
in vitro [6] = conditions: human
in vitro [7] = conditions: human; remark: listed apart in the source
[8] = tested on: SARS-CoV-2 stock strain NL/2020; experiment: Intracellular viral RNA quantification by RT-qPCR in A549-ACE2 cells; assay type: cell-based; conditions: for LOG viral RNA reduction: A549-ACE2, MOI 0.005, 48 h, vs DMSO; for Prevention of SARS-CoV-2 propagation (in words): A549-ACE2, conclusion from Table 5

Compound `COC(=O)c1cc(-c2ccc(N3CCOCC3)cc2)ccc1NC(C#N)[C@H](Cc1c[nH]c2ccccc12)NC(=O)OC(C)(C)C` (stereo partly drawn) [(Ia), methyl 4-(((2S)-2-((tert-butoxycarbonyl)amino)-1-cyano-3-(1H-indol-3-yl)propyl)-amino)-4′-morpholino-[1,1′-biphenyl]-3-carboxylate] has a minimal effective concentration [1] of 0.78 µM, an EC50 [1] of 580 nM and an EC50 [2] of 300 nM. The EC90 [2] was 500 nM, the EC50 [3] was 1000 nM and the EC90 [3] was 1800 nM. The EC50 [4] was 200 nM, the EC90 [4] was 2000 nM and the “Prevention of infection with 229E-GFP (GFP expression, in words)” value (hCoV-229E-GFP virus) was “suitable for preventing efficiently the infection”. The “Prevention of infection by West Nile Virus (GFP expression, in words)” value (WNV-GFP virus) was “not being suitable for preventing the infection”, the “Prevention of infection by Vesicular Stomatitis Virus (GFP expression, in words)” value (VSV-GFP virus) was “not being suitable for preventing the infection” and the CC50 at 48 h (in vitro [5]) was > 50000 nM. For the same compound, the CC50 at 48 h (in vitro [6]) was > 50000 nM and the CC50 at 48 h (in vitro [7]) was > 50000 nM.

With `COC(=O)c1cc(-c2ccnc(N3CCOCC3)c2)ccc1NC(C#N)[C@H](Cc1c[nH]c2ccccc12)NC(=O)OC(C)(C)C` (stereo partly drawn) [(Ian), methyl 2-(((2S)-2-((tert-butoxycarbonyl)amino)-1-cyano-3-(1H-indol-3-yl)propyl)amino)-5-(2-morpholinopyridin-4-yl)benzoate] the minimal effective concentration [1] was 1.85 µM, the EC50 [1] was 1390 nM and the EC50 [3] was 1100 nM. For the same compound, the EC90 [3] was 6000 nM and the CC50 at 48 h (in vitro [6]) was > 50000 nM.

`COC(=O)c1cc(Br)ccc1NC(C#N)[C@H](Cc1c[nH]c2ccccc12)NC(=O)OC(C)(C)C` (stereo partly drawn) [(Ib), methyl 5-bromo-2-(((2S)-2-((tert-butoxycarbonyl)amino)-1-cyano-3-(1H-indol-3-yl)propyl)amino)benzoate] showed a minimal effective concentration [1] of 0.78 µM, an EC50 [1] of 580 nM and an EC50 [2] of 500 nM. It also gave an EC90 [2] of 2200 nM, an EC50 [3] of 1800 nM and an EC90 [3] of 2700 nM. For the same compound, the EC50 [4] was 1200 nM, the EC90 [4] was 2500 nM and the CC50 at 48 h (in vitro [5]) was > 12500 nM.

`CC(C)(C)OC(=O)N[C@@H](Cc1c[nH]c2ccccc12)C(C#N)Nc1ccc(Br)cc1C(=O)c1ccccc1` (stereo partly drawn) [(Ic), (3S)-2-((4-Bromo-2-benzoylphenyl)amino)-4-(1H-indol-3-yl)-3-(tert-butoxycarbonylamino)butanenitrile] showed a minimal effective concentration [1] of 0.78 µM, an EC50 [1] of 580 nM and an EC50 [2] of 200 nM. The EC90 [2] was 300 nM, the EC50 [3] was 1000 nM and the EC90 [3] was 2100 nM. For the same compound, the EC50 [4] was 1200 nM, the EC90 [4] was 1800 nM and the “LOG viral RNA reduction” value ([8]; compound concentration 4 μM) was 4.26 LOG. The “Prevention of SARS-CoV-2 propagation (in words)” value [8] was “effective in preventing propagation of SARS-CoV-2”, the “Prevention of infection with 229E-GFP (GFP expression, in words)” value (hCoV-229E-GFP virus) was “suitable for preventing efficiently the infection” and the “Prevention of infection by West Nile Virus (GFP expression, in words)” value (WNV-GFP virus) was “not being suitable for preventing the infection”. The “Prevention of infection by Vesicular Stomatitis Virus (GFP expression, in words)” value (VSV-GFP virus) was “not being suitable for preventing the infection” and the CC50 at 48 h (in vitro [5]) was > 50000 nM.

`CC(C)(C)OC(=O)N[C@@H](Cc1c[nH]c2ccccc12)C(C#N)Nc1ccc(Cl)cc1C(=O)c1ccccc1` (stereo partly drawn) [(Id), (3S)-3-(tert-Butoxycarbonylamino)-4-(1H-indol-3-yl)-2-((2-benzoyl-4-chlorophenyl)amino)butanenitrile] gave a minimal effective concentration [1] of 0.78 µM, an EC50 [1] of 580 nM and an EC50 [2] of 200 nM. It also gave an EC90 [2] of 500 nM, an EC50 [3] of 600 nM and an EC90 [3] of 1400 nM. The EC50 [4] was 300 nM, the EC90 [4] was 1100 nM and the CC50 at 48 h (in vitro [5]) was > 50000 nM.

With `COC(=O)c1cc(-c2ccc3c(c2)OCCO3)ccc1NC(C#N)[C@H](Cc1c[nH]c2ccccc12)NC(=O)OC(C)(C)C` (stereo partly drawn) [(If), methyl 2-(((2S)-2-((tert-butoxycarbonyl)amino)-1-cyano-3-(1H-indol-3-yl)propyl)amino)-5-(2,3-dihydrobenzo[b][1,4]dioxin-6-yl)benzoate] the minimal effective concentration [1] was 0.78 µM, the EC50 [1] was 580 nM and the EC50 [2] was 1000 nM. The EC90 [2] was 1800 nM, the EC50 [3] was 1000 nM and the EC90 [3] was 1800 nM. The EC50 [4] was 2000 nM, the EC90 [4] was 4000 nM and the “LOG viral RNA reduction” value ([8]; compound concentration 4 μM) was 5.14 LOG. The “Prevention of SARS-CoV-2 propagation (in words)” value [8] was “effective in preventing propagation of SARS-CoV-2”, the CC50 at 48 h (in vitro [5]) was > 50000 nM and the CC50 at 48 h (in vitro [6]) was > 50000 nM. The CC50 at 48 h (in vitro [7]) was 50000 nM.

Compound `COC(=O)c1cc(-c2cccc(N3CCOCC3)c2)ccc1NC(C#N)[C@H](Cc1c[nH]c2ccccc12)NC(=O)OC(C)(C)C` (stereo partly drawn) [(Ig), methyl 4-(((2S)-2-((tert-butoxycarbonyl)amino)-1-cyano-3-(1H-indol-3-yl)propyl)amino)-3′-morpholino-[1,1′-biphenyl]-3-carboxylate] has a minimal effective concentration [1] of 0.78 µM, an EC50 [1] of 580 nM and an EC50 [2] of 1300 nM. The EC90 [2] was 2000 nM, the EC50 [3] was 1800 nM and the EC90 [3] was 8000 nM. For the same compound, the EC50 [4] was 1800 nM, the EC90 [4] was 8000 nM and the CC50 at 48 h (in vitro [5]) was > 50000 nM. The CC50 at 48 h (in vitro [6]) was > 50000 nM and the CC50 at 48 h (in vitro [7]) was > 50000 nM.

With `CCOC(=O)c1ccccc1NC(C#N)[C@H](Cc1c[nH]c2ccccc12)NC(=O)OC(C)(C)C` (stereo partly drawn) [(Ih), ethyl 2-(((2S)-2-((tert-butoxycarbonyl)amino)-1-cyano-3-(1H-indol-3-yl)propyl)amino)-benzoate] the minimal effective concentration [1] was 1.56 µM, the EC50 [1] was 1170 nM and the EC50 [2] was 100 nM. It also gave an EC90 [2] of 2500 nM, an EC50 [3] of 4000 nM and an EC90 [3] of 7000 nM. For the same compound, the EC50 [4] was 3700 nM, the EC90 [4] was 4000 nM and the CC50 at 48 h (in vitro [5]) was > 12500 nM.

Work on `COC(=O)c1ccc(Br)cc1NC(C#N)[C@H](Cc1c[nH]c2ccccc12)NC(=O)OC(C)(C)C` (stereo partly drawn) [(Ii), methyl 4-bromo-2-(((2S)-2-((tert-butoxycarbonyl)amino)-1-cyano-3-(1H-indol-3-yl)propyl)-amino)benzoate] yielded a minimal effective concentration [1] of 1.56 µM, an EC50 [1] of 1170 nM and an EC50 [2] of 200 nM. The EC90 [2] was 1400 nM, the EC50 [3] was 2000 nM and the EC90 [3] was 6000 nM. The EC50 [4] was < 900 nM, the EC90 [4] was 2700 nM and the CC50 at 48 h (in vitro [5]) was > 12500 nM.

`COC(=O)c1cc(-c2cc(OC(C)C)ccc2F)ccc1NC(C#N)[C@H](Cc1c[nH]c2ccccc12)NC(=O)OC(C)(C)C` (stereo partly drawn) [(Ip), methyl 4-(((2S)-2-((tert-butoxycarbonyl)amino)-1-cyano-3-(1H-indol-3-yl)propyl)amino)-2′-fluoro-5′-isopropoxy-[1,1′-biphenyl]-3-carboxylate] showed a minimal effective concentration [1] of 1.56 µM, an EC50 [1] of 1170 nM and an EC50 [2] of 1500 nM. For the same compound, the EC90 [2] was 7000 nM, the EC50 [3] was 5000 nM and the EC90 [3] was 9000 nM. The EC50 [4] was 1800 nM, the EC90 [4] was 8000 nM and the CC50 at 48 h (in vitro [5]) was > 50000 nM.

`COC(=O)c1cc(-c2ccc(N3CCOCC3)nc2)ccc1NC(C#N)[C@H](Cc1c[nH]c2ccccc12)NC(=O)OC(C)(C)C` (stereo partly drawn) [(Is), methyl 2-(((2S)-2-((tert-butoxycarbonyl)amino)-1-cyano-3-(1H-indol-3-yl)propyl)amino)-5-(6-morpholinopyridin-3-yl)benzoate] gave a minimal effective concentration [1] of 1.56 µM, an EC50 [1] of 1170 nM and an EC50 [2] of 400 nM. The EC90 [2] was 1800 nM, the EC50 [3] was 2000 nM and the EC90 [3] was 8000 nM. The EC50 [4] was 1300 nM, the EC90 [4] was 8000 nM and the CC50 at 48 h (in vitro [5]) was > 50000 nM. For the same compound, the CC50 at 48 h (in vitro [6]) was > 50000 nM and the CC50 at 48 h (in vitro [7]) was > 50000 nM.

In the case of `CCN(CC)c1ccc(-c2ccc(NC(C#N)[C@H](Cc3c[nH]c4ccccc34)NC(=O)OC(C)(C)C)c(C(=O)OC)c2)cc1` (stereo partly drawn) [(Ix), methyl 4-(((2S)-2-((tert-butoxycarbonyl)amino)-1-cyano-3-(1H-indol-3-yl)propyl)amino)-4′-(diethylamino)-[1,1′-biphenyl]-3-carboxylate], the minimal effective concentration [1] is reported as 3.12 µM and the EC50 [1] is reported as 2340 nM.

`CCCOc1ccc(-c2ccc(NC(C#N)[C@H](Cc3c[nH]c4ccccc34)NC(=O)OC(C)(C)C)c(C(=O)OC)c2)cc1` (stereo partly drawn) [(Iy), methyl 4-(((2S)-2-((tert-butoxycarbonyl)amino)-1-cyano-3-(1H-indol-3-yl)propyl)amino)-4′-propoxy-[1,1′-biphenyl]-3-carboxylate] gave a minimal effective concentration [1] of 3.12 µM and an EC50 [1] of 2340 nM.

For `COC(=O)c1cc(-c2cccc(C(C)(C)C)c2)ccc1NC(C#N)[C@H](Cc1c[nH]c2ccccc12)NC(=O)OC(C)(C)C` (stereo partly drawn) [(Iz), methyl 4-(((2S)-2-((tert-butoxycarbonyl)amino)-1-cyano-3-(1H-indol-3-yl)propyl)amino)-3′-(tert-butyl)-[1,1′-biphenyl]-3-carboxylate], the minimal effective concentration [1] was 3.12 µM and the EC50 [1] was 2340 nM.

With `CCC(CC)COC(=O)[C@H](C)N[P@](=O)(OC[C@H]1O[C@@](C#N)(c2ccc3c(N)ncnn23)[C@H](O)[C@@H]1O)Oc1ccccc1` [Remdesivir, remdesivir, reference compound] the “LOG viral RNA reduction” value ([8]; compound concentration 5 μM) was 6.67 LOG.

Source: US20250296914A1, “ANTIVIRAL COMPOUNDS AND COMPOSITIONS THEREFROM” (CONSEJO SUPERIOR DE INVESTIGACIONES CIENTÍFICAS, priority 2022, published 2025)
